Three compounds from US20260183302A1, “PDK1 REGULATORY COMPOUND AND COMPOSITION CONTAINING THE SAME” (PROVIBIO CO., LTD., priority 2024, published 2026) can be followed below.

Entries after “also recorded” stand apart in the source; their conditions may differ.

Test [1] concerns PDK1 phosphorylation in SU-DHL-8 cells. Nature of the test: PDK1 phosphorylation inhibition by flow cytometry (pPDK1-PE) in SU-DHL-8 cells. Particulars: SU-DHL-8, 24 hours, vs control group. It counts as cell-based, human. As for the experimental part: After stabilizing the cells, the compound of the present invention was added, and the cells were cultured for 24 hours.
After drug treatment, the cells were harvested, and the Fc receptor blocking process was performed. The cells were then fixed and permeabilized using the Intracellular Staining Kit (Cat. No. BD554715) from BD Biosciences. Subsequently, the intracellular pPDK1 was stained using the pPDK1-PE fluorescently labeled antibody (BD Biosciences).
Referring to the figure, the vertical axis represents the phosphorylation level of PDK1 (phospho-PDK1 expression level), and the horizontal axis denotes the concentration-dependent treatment conditions of each compound.

In another test the test system is psoriasis-induced mice. The test is described as follows: In vivo psoriasis model (Aldara cream, Imiquimod). On the set-up: species or system BALB/c mice. As for the experimental part: To verify the therapeutic effect of the compound according to the present invention on psoriasis, a psoriasis animal model was established as follows, and the compound according to the present invention was administered to evaluate the alleviation of skin lesions and changes in immune cell patterns.
For the establishment of the psoriasis animal model, BALB/c mice (7 weeks old, female, 20 g) were purchased from HanabioTech Co., Ltd. and acclimatized to the rearing environment for one week.
Subsequently, the hair on the mouse back was shaved using a hair removal device for the first time, and then completely shaved using a depilatory cream (Nicrin Cream (80% thioglycolic acid, Il Dong Pharmaceutical)) for the second time. The mice were then kept for 24 hours to confirm the absence of skin damage.
To verify the psoriasis prevention and therapeutic effects of the compounds according to the present invention, the following experimental groups were established:
[Normal control group (Normal, Not Treatment), psoriasis-induced control group (Psoriasis, Not Treatment), psoriasis-induced vehicle control group (Psoriasis, Vehicle), experimental group (GO85, GO86, GO88, GO89, PBK-2024-010, PBK-2024-026, PBK-2025-002, PBK-2025-004, PBK-2025-016, PBK-2025-017, PBK-2025-023)]. […]
Body weights of mice in each group were measured on days 1, 4, and 8 after the start of injection and psoriasis induction. […]
To evaluate the therapeutic effect in a psoriasis-induced mouse model, the PASI (Psoriasis Area and Severity Index) score was measured.
The PASI score is based on three criteria: erythema, scaling, and skin thickness, each scored from 0 (none) to 4 (severe). […]
Observations were conducted daily at the same time, and the same observer visually assessed each criterion and recorded the scores, with the results presented in FIG. 13. […]
All samples were measured in duplicate, and the absorbance was measured at 450 nm using a microplate reader.

For test [2], the system named is pulmonary fibrosis-induced mice. Nature of the test: Bleomycin-induced pulmonary fibrosis animal model. As to conditions: bleomycin mice lung, vs BLM-treated group. The class given is in vivo, Balb/c mice. An excerpt: To evaluate the therapeutic efficacy of the compound according to the present invention against pulmonary fibrosis, an animal model of pulmonary fibrosis induced by bleomycin intratracheal administration was established.
For this purpose, 8-week-old male Balb/c mice were subjected to general anesthesia using an inhalation anesthetic (2-3% isoflurane in oxygen), followed by disinfection of the neck region, skin incision, and exposure of the trachea.
Bleomycin (Sigma-Aldrich, USA) was directly administered into the trachea at a concentration of 5 mg/kg in a solution of 100 μL.
Two days prior to Bleomycin administration, the compound of the present invention or the comparative drug was administered intraperitoneally at the specified concentration and dose, and the administration was continued once daily for a total of 14 days.
The experimental groups included Normal, Bleomycin alone (BLM), and BLM plus the compound of the present invention (BLM+GO88, 0.2 mg/kg).
Ten days later, the mice were euthanized humanely using carbon dioxide gas, the trachea was incised, and PBS was injected into the trachea to remove blood from the lungs.
The lung tissue washed with PBS was excised, fixed in 4% paraformaldehyde solution for 24 hours, and then paraffin blocks and tissue sections were prepared. The prepared sections were subjected to pathological analysis using H&E, Masson's trichrome, and Sirius red staining.
Additionally, immunohistochemical (IHC) staining was performed for α-SMA (α-smooth muscle actin), an indicator of lung fibroblast activation.

Test [3] has as its system MRL/lpr mice with hair loss in the facial region. Nature of the test: Hair loss treatment and hair follicle Ki-67 IHC in MRL/lpr mice. The class given is in vivo. As to conditions: 41-week-old female MRL/lpr; GO15F (30 mg/kg), GO48 (1 mg/kg), GO88 (0.5 mg/kg) intraperitoneal once daily. As for the experimental part:
Additionally, in 41-week-old female MRL/Ipr mice, the compounds GO15F (30 mg/kg), GO48 (1 mg/kg), and GO88 (0.5 mg/kg) were administered intraperitoneally once daily.
To confirm the proliferative activity of hair follicle cells in the skin tissue of these mice, the mice were sacrificed 14 days after administration of the compounds of the present invention, and Ki-67 immunohistochemistry (IHC) was performed.
For this purpose, the excised skin tissue was fixed in formalin, embedded in paraffin blocks, and stained with a Ki-67-specific antibody on tissue sections prepared as slides.

With “12-[4-(2,2-dimethylmorpholin-4-yl)]dodecyl-N-(6-aminopurine-2-yl) carboxamide [Compound 11]”, the phospho-PDK1 expression level result in test [1] (listed as GO86) is listed as “stronger PDK1 inhibition; also recorded: high inhibitory effects even at low concentrations”. The “efficacy in improving dermatological symptoms” value with psoriasis-induced mice is recorded as “excellent efficacy in improving dermatological symptoms”.
As for `Nc1ncccc1C(=O)NCCCCCCCCCCCCN1CCNCC1` [Compound 14, 2-Amino-N-(12-(piperazin-1-yl)dodecyl)nicotinamide], the phospho-PDK1 expression level entry in test [1] (listed as GO88) is reported as “stronger PDK1 inhibition; also recorded: high inhibitory effects even at low concentrations”. Moreover, in the test on psoriasis-induced mice, the “efficacy in improving dermatological symptoms” value is “excellent efficacy in improving dermatological symptoms”. In test [2], the “collagen deposition (Masson's trichrome and Sirius red staining)” value is “significantly reduced”; the “expression of α-SMA (IHC)” value is recorded as “significantly suppressed”. In addition, the “hair growth on the facial region” value in test [3] is “hair growth was confirmed”.
For the compound `Nc1ncccc1C(=O)NCCCCCCCCCCCCF` [Compound 57, 2-Amino-N-(12-fluoro-dodecyl)-nicotinamide], in test [1], the phospho-PDK1 expression level result is reported as “inhibitory effect on PDK1 phosphorylation”. In addition, in test [2], the “collagen deposition (Masson's trichrome and Sirius red staining)” value was “significantly reduced”; the “expression of α-SMA (IHC)” value is reported as “significantly suppressed”. In test [3], the “hair growth on the facial region” value is “hair growth was confirmed”.
